In general, EC50 refers to the midpoint of the concentration-response curve. A lower EC50 goes with a more potent agent.

The results in this text go back to patent publication US20080125424A1, “Derivatives of urea and related diamines, methods for their manufacture, and uses therefor” (priority 2006, published 2008).

This test has as its target T1, human parathyroid cell Ca2+ receptor (hPCaR) (Homo sapiens, UniProt P41180).
T1 construct: expressed in transfected cells
T1 sequence (P41180 20-1078): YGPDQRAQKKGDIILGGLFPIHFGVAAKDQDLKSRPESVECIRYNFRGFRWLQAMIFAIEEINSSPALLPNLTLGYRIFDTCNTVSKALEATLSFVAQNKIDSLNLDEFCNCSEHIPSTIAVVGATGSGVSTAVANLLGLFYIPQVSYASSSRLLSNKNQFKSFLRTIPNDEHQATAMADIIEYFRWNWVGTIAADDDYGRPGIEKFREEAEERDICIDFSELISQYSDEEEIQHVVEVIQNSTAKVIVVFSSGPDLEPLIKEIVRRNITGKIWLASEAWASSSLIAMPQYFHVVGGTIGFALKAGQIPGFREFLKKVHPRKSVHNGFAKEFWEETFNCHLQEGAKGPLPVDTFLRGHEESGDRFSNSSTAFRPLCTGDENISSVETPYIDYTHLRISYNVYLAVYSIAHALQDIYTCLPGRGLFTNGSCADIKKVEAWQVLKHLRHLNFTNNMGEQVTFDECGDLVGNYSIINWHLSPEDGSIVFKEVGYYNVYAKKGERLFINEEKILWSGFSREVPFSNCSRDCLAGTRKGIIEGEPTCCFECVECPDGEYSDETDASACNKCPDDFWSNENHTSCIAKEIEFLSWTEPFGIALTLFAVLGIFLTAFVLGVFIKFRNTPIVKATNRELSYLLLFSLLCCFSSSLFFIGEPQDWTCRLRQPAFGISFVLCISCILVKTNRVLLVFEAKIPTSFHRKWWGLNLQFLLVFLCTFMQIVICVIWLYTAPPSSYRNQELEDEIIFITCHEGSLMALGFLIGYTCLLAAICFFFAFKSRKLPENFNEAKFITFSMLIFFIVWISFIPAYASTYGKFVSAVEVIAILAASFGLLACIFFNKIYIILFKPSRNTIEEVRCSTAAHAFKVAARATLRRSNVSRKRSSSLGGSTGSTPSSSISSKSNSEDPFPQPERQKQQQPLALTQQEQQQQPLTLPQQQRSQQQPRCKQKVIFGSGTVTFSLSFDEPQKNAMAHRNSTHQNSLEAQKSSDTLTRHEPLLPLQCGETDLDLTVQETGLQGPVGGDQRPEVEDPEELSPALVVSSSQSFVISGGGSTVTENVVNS
Description: [Ca2+]i fluorescence assay in HEK 293 4.0-7 cells expressing hPCaR. The test is classed as cell-based. To be noted: buffer with 1 mM CaCl2. Here is the method: The activities of the compounds of the present invention on calcium receptors were measured. In one embodiment, the measurement was performed in accordance with the method described in Example 4 of Nemeth et al., PCT/US95/13704 (International Publication No. WO96/12697) herein incorporated by reference.
A 4.0-kb NotI-HindIII fragment of the human parathyroid cell Ca^2+ receptor (hPCaR) cDNA was subcloned into the mammalian expression vector pCEP4 (Invitrogen) containing the hygromycin-resistant gene as a selectable marker. This plasmid was transfected into HEK 293 cells by calcium phosphate precipitation. Transfected cells were grown in Dulbecco's modified Eagle's medium containing 10% fetal bovine serum and hygromycin (200 μg/mL). Hygromycin-resistant colonies were subcloned and assayed for hPCaR mRNA by solution hybridization using a ^32P-labeled RNA probe complementary to the (4.0 kb) hPCaR sequence (Garrett, et al., J. Biol. Chem. 270, 12919-12925 (1995)). Clone 7 was used to assess the effects of compounds on [Ca^2+]i. This stably transfected cell line was termed HEK 293 4.0-7. For measurements of [Ca^2+]i, the cells were recovered from tissue culture flasks by brief treatment with Versene (Invitrogen; Containing 0.2 g/L EDTA.4Na in phosphate-buffered saline) and then seeded in collagen coated 384-well plates (BD Biosciences) at 20K cells per well in the growth media (same as above). Cells were grown in 37c TC incubator overnight. Then, the media was discarded and cells were loaded with 1× dye from Ca^2+ Assay Kit I (BD Biosciences) in parathyroid cell buffer (126 mM NaCl, 4 mM KCl, 1 mM MgSO4, 0.7 mM K2HPO4/KH2PO4, 20 mM HEPES.NaOH (pH 7.45)) containing 0.5% BSA and 1 mM CaCl2. Cells were loaded at room temperature for 90 minutes. Each test compound was added to the cells and the fluorescence was recorded by using excitation and emission wavelengths of 485 and 530 nm, respectively.

For `CC(CN(CCC(c1ccccc1)c1ccccc1)C(=O)Nc1nc(-c2ccccc2)cs1)C(=O)O` (centres unmarked) [Example 69, 3-(1-(3,3-diphenylpropyl)-3-(4-phenylthiazol-2-yl)ureido)-2-methylpropanoic acid], the EC50 is under 100 nM.

Compound `CC(C)(C)OC(=O)NCCN(CCC(c1ccccc1)c1ccccc1)C(=O)Nc1nc2ccccc2s1` [Example 148, {2-[3-Benzothiazol-2-yl-1-(3,3-diphenyl-propyl)-ureido]-ethyl}-carbamic acid tert-butyl ester] showed a concentration giving a half-maximal response (EC50) of 100 to 1000 nM.

Turning to `C[C@H]1CN(C(=O)CCCN(CCC(c2ccccc2)c2ccccc2)C(=O)Nc2nc(-c3ccccc3)cs2)CCN1` [Example 90, (S)-1-(3,3-diphenylpropyl)-1-(4-(3-methylpiperazin-1-yl)-4-oxobutyl)-3-(4-phenylthiazol-2-yl)urea], the 50% effective concentration (EC50) fell in the range of 100 to 1000 nM.

`CC(CN(CCC(c1ccccc1)c1ccccc1)C(=O)Nc1nc2ccccc2s1)C(=O)O` (centres unmarked) [Example 122, 3-(3-(benzo[d]thiazol-2-yl)-1-(3,3-diphenylpropyl)ureido)-2-methylpropanoic acid] showed an EC50 of 1000 to 5000 nM.

`CS(=O)(=O)Nc1ccc(-c2csc(NC(=O)N(CCC(N)=O)CCC(c3ccccc3)c3ccccc3)n2)cc1` [Example 77, 1-(3-amino-3-oxopropyl)-1-(3,3-diphenylpropyl)-3-(4-(4-(methylsulfonamido)phenyl)thiazol-2-yl)urea] displayed an EC50 of under 100 nM.

As to `CCNC(=O)CCCN(CCC(c1ccccc1)c1ccccc1)C(=O)Nc1nc2ccccc2s1` [Example 85, 3-(benzo[d]thiazol-2-yl)-1-(3,3-diphenylpropyl)-1-(4-(ethylamino)-4-oxobutyl)urea], the EC50 was under 100 nM.

`O=C(O)CCN(CCC(c1ccccc1)c1ccccc1)C(=O)Nc1nc(-c2ccccc2)cs1` [Example 126, 3-(1-(3,3-diphenylpropyl)-3-(4-phenylthiazol-2-yl)ureido)propanoic acid] gave a concentration giving a half-maximal response (EC50) of 1000 to 5000 nM.

Regarding `CN(CCN(CCC(c1ccccc1)c1ccccc1)C(=O)Nc1nc2ccccc2s1)C1CCCCC1` [Example 163, 3-Benzothiazol-2-yl-1-[2-(cyclohexyl-methyl-amino)-ethyl]-1-(3,3-diphenyl-propyl)-urea], the EC50 is 100 to 1000 nM.

With `CS(=O)(=O)Nc1ccc(-c2nc(NC(=O)N(CCO)CCC(c3ccccc3)c3ccccc3)sc2Cl)cc1` [Example 133, 3-(5-chloro-4-(4-(methylsulfonamido)phenyl)thiazol-2-yl)-1-(3,3-diphenylpropyl)-1-(2-hydroxyethyl)urea], the concentration for a half-maximal effect (EC50) is under 100 nM.

In the case of `C[C@@H]1CNCCN1C(=O)CCN(CCC(c1ccccc1)c1ccccc1)C(=O)Nc1nc2ccccc2s1` [Example 120, (R)-3-(benzo[d]thiazol-2-yl)-1-(3,3-diphenylpropyl)-1-(3-(2-methylpiperazin-1-yl)-3-oxopropyl)urea], the EC50 lay in the range of 1000 to 5000 nM.

`CC(C)(C)OC(=O)N1CCN(C(=O)CCCN(CCC(c2ccccc2)c2ccccc2)C(=O)Nc2nc3ccccc3s2)CC1` [Example 95, tert-butyl 4-(4-(3-(benzo[d]thiazol-2-yl)-1-(3,3-diphenylpropyl)ureido)butanoyl)piperazine-1-carboxylate] gave an EC50 of 100 to 1000 nM.

Compound `CSCCCN(CCC(c1ccccc1)c1ccccc1)C(=O)Nc1nc(-c2ccc(NS(C)(=O)=O)cc2)c(Cl)s1` [Example 138, 3-(5-chloro-4-(4-(methylsulfonamido)phenyl)thiazol-2-yl)-1-(3,3-diphenylpropyl)-1-(3-(methylthio)propyl)urea] had an EC50 of under 100 nM.

For `O=C(CCCN(CCC(c1ccccc1)c1ccccc1)C(=O)Nc1nc2ccccc2s1)N1CCCCC1` [Example 105, 3-(benzo[d]thiazol-2-yl)-1-(3,3-diphenylpropyl)-1-(4-oxo-4-(piperidin-1-yl)butyl)urea], the EC50 was in the range of 100 to 1000 nM.

`O=C(CCCN(CCC(c1ccccc1)c1ccccc1)C(=O)Nc1nc2ccccc2s1)N1CCOCC1` [Example 94, 3-(benzo[d]thiazol-2-yl)-1-(3,3-diphenylpropyl)-1-(4-morpholino-4-oxobutyl)urea] yielded an EC50 of 100 to 1000 nM.
